Test results published in patent publication US20100324319A1, “Tame based chelators and uses thereof” (priority 2003, published 2010).

What was measured:
[1] = transchelation experiments with ^67Ga^3+ labelled chelators, DTPA as competing ligand; type: physicochemical; conditions: ^67Ga labelled, after 10 days
Protocol: (§1) The chelators defined by compounds 8 and 15 in FIG. 1 and as described, supra, were tested in transchelation experiments, using ^111In^3+, and ^67Ga^3+, using the known chelator DTPA as a competing ligand. Labelling was carried out using standard methods.
Labelled TAME-HexA was 94% intact after 10 days, and 99% of the labelled TAME-HexB was stable after the same period of time.

[2] = transchelation experiments with ^111In^3+ labelled chelators, DTPA as competing ligand; type: physicochemical; conditions: ^111In labelled, after 24 hours
Protocol: as §1

labelled chelator intact / stable [1]: 99%
labelled material intact [2]: about 10%
Structure (SMILES): O=C(O)CN(CC(=O)O)CC(CN(CC(=O)O)CC(=O)O)(CN(CC(=O)O)CC(=O)O)CN(Cc1ccccc1)Cc1ccccc1 [Compound 15, 2-[Bis(carboxymethylamino)methyl]-2-[(dibenzylamino)methyl]-propylene-1,3-dinitrilotetraacetic acid]
